Results as given in PubChem BioAssay AID330 (DTP/NCI, 2004).
Where “and” joins values, the source holds several entries; their conditions need not be identical. Equal values may be shown once. Toxic doses and inconclusive results are not listed. Square brackets hold non-standard residues; d marks the D form. Peptide text beside a SMILES is read from it. ξ: configuration not given here. ξF = NC(Cc1ccccc1)C(=O)O

Test system: P388 leukemia ip, CD2F1 mice, survival T/C
Assay: NCI In Vivo Anticancer Drug Screen. Data for tumor model P388 Leukemia (intraperitoneal) in CD2F1 (CDF1) mice
Conditions: endpoint: median survival time, higher = longer survival
Procedure, shortened: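 Mice carrying the transplanted tumor received test compound or vehicle. Survival was recorded in each group, and the value is the treated-group measurement divided by that of the vehicle-treated control group.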

[1] = dose: 60.0 mg/kg/injection, schedule: Q01DX005 (ip), vehicle: saline with Tween-80
[2] = dose: 120.0 mg/kg/injection, schedule: Q01DX005 (ip), vehicle: saline with Tween-80
[3] = dose: 240.0 mg/kg/injection, schedule: Q01DX005 (ip), vehicle: saline with Tween-80
[4] = dose: 50.0 mg/kg/injection, schedule: Q01DX009 (ip), vehicle: Klucel (hydroxypropylcellulose) (HPC)
[5] = dose: 50.0 mg/kg/injection, schedule: Q01DX009 (ip), vehicle: saline
[6] = dose: 100.0 mg/kg/injection, schedule: Q01DX009 (ip), vehicle: saline
[7] = dose: 200.0 mg/kg/injection, schedule: Q01DX009 (ip), vehicle: saline
[8] = dose: 50.0 mg/kg/injection, schedule: Q01DX005 (ip), vehicle: Klucel (hydroxypropylcellulose) (HPC)
[9] = dose: 100.0 mg/kg/injection, schedule: Q01DX005 (ip), vehicle: Klucel (hydroxypropylcellulose) (HPC)
[10] = dose: 200.0 mg/kg/injection, schedule: Q01DX005 (ip), vehicle: Klucel (hydroxypropylcellulose) (HPC)
[11] = dose: 100.0 mg/kg/injection, schedule: Q01DX001 (ip), vehicle: saline with Tween-80
[12] = dose: 200.0 mg/kg/injection, schedule: Q01DX001 (ip), vehicle: saline with Tween-80
[13] = dose: 400.0 mg/kg/injection, schedule: Q01DX001 (ip), vehicle: saline with Tween-80

## COc1cccc2c1C(=O)c1c(O)c3c(c(O)c1C2=O)C[C@@](O)(C(=O)CN1CCN(C)CC1)C[C@@H]3OC1CC(N)C(O)C(C)O1 (some centres undefined)
dose: 1.3 mg/kg/injection, schedule: Q01DX001 (ip), vehicle: water
  T/C: 108 % of control
dose: 1.56 mg/kg/injection, schedule: Q01DX009 (ip), vehicle: water
  T/C: 115 % of control
dose: 1.8 mg/kg/injection, schedule: Q01DX001 (ip), vehicle: water
  T/C: 116 % of control
dose: 2.4 mg/kg/injection, schedule: Q01DX001 (ip), vehicle: water
  T/C: 106 % of control
dose: 3.12 mg/kg/injection, schedule: Q01DX009 (ip), vehicle: water
  T/C: 123 % of control
dose: 3.13 mg/kg/injection, schedule: Q01DX009 (ip), vehicle: water
  T/C: 115 % of control
dose: 3.2 mg/kg/injection, schedule: Q01DX001 (ip), vehicle: water
  T/C: 109 % of control
dose: 4.2 mg/kg/injection, schedule: Q01DX001 (ip), vehicle: water
  T/C: 113 % of control
dose: 5.6 mg/kg/injection, schedule: Q01DX001 (ip), vehicle: water
  T/C: 115 % of control
dose: 6.25 mg/kg/injection, schedule: Q01DX009 (ip), vehicle: water
  T/C: 115 % of control
dose: 7.5 mg/kg/injection, schedule: Q01DX001 (ip), vehicle: water
  T/C: 117 % of control
dose: 10.0 mg/kg/injection, schedule: Q01DX001 (ip), vehicle: water
  T/C: 115 % of control
dose: 12.5 mg/kg/injection, schedule: Q01DX001 (ip), vehicle: water
  T/C: 117 % of control
dose: 18.8 mg/kg/injection, schedule: Q01DX009 (ip), vehicle: water
  T/C: 161 % of control
dose: 25.0 mg/kg/injection, schedule: Q01DX001 (ip), vehicle: water
  T/C: 119 % of control
dose: 25.0 mg/kg/injection, schedule: Q01DX009 (ip), vehicle: water
  T/C: 115 % of control and 117 % of control

## CC(OC(C(O)C=O)C(O)C(O)CO)C(=O)N[C@@H](C)C(=O)O (some centres undefined)
[1]
  T/C: 101 % of control
[2]
  T/C: 100 % of control
[3]
  T/C: 100 % of control

## Nc1nnc(-c2ccccc2)s1
dose: 12.5 mg/kg/injection, schedule: Q01DX009 (ip), vehicle: Klucel (hydroxypropylcellulose) (HPC)
  T/C: 114 % of control
dose: 25.0 mg/kg/injection, schedule: Q01DX009 (ip), vehicle: Klucel (hydroxypropylcellulose) (HPC)
  T/C: 107 % of control
dose: 50.0 mg/kg/injection, schedule: Q01DX008 (ip), vehicle: Klucel (hydroxypropylcellulose) (HPC)
  T/C: 109 % of control
[4]
  T/C: 114 % of control
dose: 100.0 mg/kg/injection, schedule: Q01DX008 (ip), vehicle: Klucel (hydroxypropylcellulose) (HPC)
  T/C: 109 % of control
dose: 200.0 mg/kg/injection, schedule: Q01DX008 (ip), vehicle: Klucel (hydroxypropylcellulose) (HPC)
  T/C: 114 % of control

## COCCn1c(=O)[nH]c(=O)c2c(Nc3ccccc3)snc21
dose: 25.0 mg/kg/injection, schedule: Q01DX009 (ip), vehicle: saline
  T/C: 100 % of control and 93 % of control
[5]
  T/C: 98 % of control and 99 % of control and 89 % of control
dose: 100.0 mg/kg/injection, schedule: Q01DX009 (ip), vehicle: saline with Tween-80
  T/C: 95 % of control
[6]
  T/C: 98 % of control and 112 % of control and 97 % of control
dose: 200.0 mg/kg/injection, schedule: Q01DX009 (ip), vehicle: saline with Tween-80
  T/C: 100 % of control
[7]
  T/C: 99 % of control

## c1ccc(N[n+]2ccc3ccccc3c2)cc1
dose: 6.25 mg/kg/injection, schedule: Q01DX009 (ip), vehicle: distilled water + alcohol
  T/C: 104 % of control
dose: 12.5 mg/kg/injection, schedule: Q01DX009 (ip), vehicle: distilled water + alcohol
  T/C: 104 % of control
dose: 25.0 mg/kg/injection, schedule: Q01DX009 (ip), vehicle: distilled water + alcohol
  T/C: 102 % of control

## COC(=O)N1C(=O)CO[C@@H]1C(C)(C)C
[1]
  T/C: 103 % of control
[2]
  T/C: 99 % of control
[3]
  T/C: 104 % of control

## COc1cc2c(cc1OC)C1C(=O)c3c(O)cc4c(c3OC1CO2)C=CC(C)(C)O4 (centres undefined)
dose: 12.5 mg/kg/injection, schedule: Q01DX005 (ip), vehicle: Klucel (hydroxypropylcellulose) (HPC)
  T/C: 98 % of control
dose: 25.0 mg/kg/injection, schedule: Q01DX005 (ip), vehicle: Klucel (hydroxypropylcellulose) (HPC)
  T/C: 100 % of control
[8]
  T/C: 107 % of control
[9]
  T/C: 107 % of control
[10]
  T/C: 111 % of control
dose: 400.0 mg/kg/injection, schedule: Q01DX005 (ip), vehicle: Klucel (hydroxypropylcellulose) (HPC)
  T/C: 111 % of control

## CCOC(=O)CN=NNc1ccccc1C(=O)CC
dose: 100.0 mg/kg/injection, schedule: Q01DX001 (ip), vehicle: Klucel (hydroxypropylcellulose) (HPC)
  T/C: 98 % of control
dose: 200.0 mg/kg/injection, schedule: Q01DX001 (ip), vehicle: Klucel (hydroxypropylcellulose) (HPC)
  T/C: 100 % of control
dose: 400.0 mg/kg/injection, schedule: Q01DX001 (ip), vehicle: Klucel (hydroxypropylcellulose) (HPC)
  T/C: 100 % of control

## CC(O)COCCOCCO (centres undefined)
dose: 100.0 mg/kg/injection, schedule: Q04DX003 (ip), vehicle: saline
  T/C: 100 % of control
dose: 200.0 mg/kg/injection, schedule: Q04DX003 (ip), vehicle: saline
  T/C: 100 % of control
dose: 400.0 mg/kg/injection, schedule: Q04DX003 (ip), vehicle: saline
  T/C: 104 % of control

## Cn1c(=O)c2c(Nc3ccccc3)ncnc2n(C)c1=O
dose: 35.0 mg/kg/injection, schedule: Q01DX005 (ip), vehicle: saline with Tween-80
  T/C: 87 % of control
dose: 70.0 mg/kg/injection, schedule: Q01DX005 (ip), vehicle: saline with Tween-80
  T/C: 87 % of control

## CN1C(=O)CC(NC(=O)CNC(=O)c2ccccc2)C1=O (centres undefined)
[1]
  T/C: 97 % of control
[2]
  T/C: 94 % of control
[3]
  T/C: 90 % of control

## O=C1/C(=C/c2ccc(O)cc2)Oc2cc(O)ccc21
[11]
  T/C: 97 % of control
[12]
  T/C: 91 % of control
[13]
  T/C: 92 % of control

## CC(C)(CN1CCCN(CC(C)(C)C(=O)O)C1=O)C(=O)O
[5]
  T/C: 93 % of control
[6]
  T/C: 94 % of control
[7]
  T/C: 98 % of control

## Cc1nc2ccc(N(C)C)cc2c2c1Cc1c(C)nc3ccc(N(C)C)cc3c1O2
[1]
  T/C: 88 % of control
[2]
  T/C: 88 % of control
[3]
  T/C: 94 % of control

## CCC(c1ccc(OCCS(=O)(=O)OC)cc1)C(CC)c1ccc(OCCS(=O)(=O)OC)cc1 (centres undefined)
dose: 12.5 mg/kg/injection, schedule: Q01DX009 (ip), vehicle: suspension in saline
  T/C: 100 % of control
dose: 25.0 mg/kg/injection, schedule: Q01DX009 (ip), vehicle: suspension in saline
  T/C: 94 % of control
[5]
  T/C: 91 % of control
dose: 50.0 mg/kg/injection, schedule: Q01DX009 (ip), vehicle: suspension in saline
  T/C: 87 % of control
[7]
  T/C: 92 % of control

## COC(=O)c1ccc(/C=C/C(=O)c2ccc(C(=O)OC)cc2)cc1
[11]
  T/C: 106 % of control
[12]
  T/C: 101 % of control
[13]
  T/C: 98 % of control

## CN1CCC(O)(c2ncc(Br)c3ccccc23)CC1
dose: 60.0 mg/kg/injection, schedule: Q01DX005 (ip), vehicle: saline + alcohol
  T/C: 97 % of control
dose: 120.0 mg/kg/injection, schedule: Q01DX005 (ip), vehicle: saline + alcohol
  T/C: 93 % of control

## CC(=O)NC(Cc1cc(I)c(OC(C)=O)c(I)c1)C(C)=O (centres undefined)
[4]
  T/C: 101 % of control
dose: 100.0 mg/kg/injection, schedule: Q01DX009 (ip), vehicle: Klucel (hydroxypropylcellulose) (HPC)
  T/C: 100 % of control
dose: 200.0 mg/kg/injection, schedule: Q01DX009 (ip), vehicle: Klucel (hydroxypropylcellulose) (HPC)
  T/C: 98 % of control

## CCOC(=O)C(NC(=O)C1(O)C(O)C2(CC)C=CCN3CCC4(c5cc(C6(C(=O)OC)CC7CN(CCc8c6[nH]c6ccccc86)CC(O)(CC)C7)c(OC)cc5N(C)C14)C32)C(C)CC (centres undefined)
dose: 1.0 mg/kg/injection, schedule: Q01DX001 (ip), vehicle: saline
  T/C: 124 % of control
dose: 2.0 mg/kg/injection, schedule: Q01DX001 (ip), vehicle: saline
  T/C: 155 % of control
dose: 4.0 mg/kg/injection, schedule: Q01DX001 (ip), vehicle: saline
  T/C: 181 % of control
dose: 8.0 mg/kg/injection, schedule: Q01DX001 (ip), vehicle: saline
  T/C: 172 % of control and 203 % of control
dose: 16.0 mg/kg/injection, schedule: Q01DX001 (ip), vehicle: saline
  T/C: 191 % of control

## NCC(=O)NC(Cc1ccccc1)C(=O)NCC(=O)O (centres undefined) (H-Gly-[ξF]-Gly-OH)
[8]
  T/C: 100 % of control
[9]
  T/C: 104 % of control
[10]
  T/C: 100 % of control
